Test results reported in patent US11401255B2, “Small molecule activators of Parkin enzyme function” (Mayo Foundation for Medical Education and Research, priority 2016, dated 2022).
“And” between values parts separate entries of the source, which are not always exact repeats. Equal values may be shown once. Read-outs that look alike come from different tables or passages of the source.

How the values were obtained:
CYP 2D6 = CYP 2D6 (Homo sapiens (Human), UniProt P10635); test: in vitro; conditions: Inhibition
CYP 2D6, sequence (P10635 whole entry): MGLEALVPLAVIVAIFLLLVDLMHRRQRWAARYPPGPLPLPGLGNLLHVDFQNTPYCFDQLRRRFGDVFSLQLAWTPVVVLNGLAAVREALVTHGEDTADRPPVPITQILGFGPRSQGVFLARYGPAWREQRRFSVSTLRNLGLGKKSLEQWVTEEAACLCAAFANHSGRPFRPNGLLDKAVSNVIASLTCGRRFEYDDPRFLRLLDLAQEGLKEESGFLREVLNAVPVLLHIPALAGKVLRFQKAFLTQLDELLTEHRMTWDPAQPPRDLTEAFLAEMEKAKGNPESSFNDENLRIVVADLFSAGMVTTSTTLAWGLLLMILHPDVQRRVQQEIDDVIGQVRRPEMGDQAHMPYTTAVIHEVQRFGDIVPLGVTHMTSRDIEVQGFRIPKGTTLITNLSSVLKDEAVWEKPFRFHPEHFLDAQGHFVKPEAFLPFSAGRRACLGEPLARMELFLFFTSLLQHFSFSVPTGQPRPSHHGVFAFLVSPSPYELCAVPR
Procedure: (§1) CYP450 inhibition profiling provides valuable information regarding any possible drug-drug interactions for a test compound.
(§2) All experiments were performed using P450-Glo™ Assay Systems (Promega) in accordance with the manufacturer's protocols. The P450-Glo™ Assays provide a luminescent readout-based method for measuring cytochrome P450 activity. A conventional cytochrome P450 reaction was performed by incubating the cytochrome P450 and a luminogenic cytochrome P450 substrate. The substrates in the P450-Glo™ assays are derivatives of beetle luciferin. The derivatives themselves are not substrates for luciferase but are converted by cytochrome P450s to luciferin, which in turn reacts with luciferase to produce light. The amount of light produced was directly proportional to cytochrome P450 activity. All test points were performed in quadruplicates. Control membranes (without CYPs) represented the Negative control (baseline).
(§3) The following reference compounds were used to assess CYP inhibition: […]

CYP 2C9 = CYP 2C9 (Homo sapiens (Human), UniProt P11712); test: P450-Glo CYP450 inhibition, CYP 2C9; format: in vitro ADME; conditions: CYP 2C9, 10 μM; for inhibition at 10 µM: human, P450-Glo Assay System (Promega), CYP 2C9 membranes
CYP 2C9, sequence (P11712 whole entry): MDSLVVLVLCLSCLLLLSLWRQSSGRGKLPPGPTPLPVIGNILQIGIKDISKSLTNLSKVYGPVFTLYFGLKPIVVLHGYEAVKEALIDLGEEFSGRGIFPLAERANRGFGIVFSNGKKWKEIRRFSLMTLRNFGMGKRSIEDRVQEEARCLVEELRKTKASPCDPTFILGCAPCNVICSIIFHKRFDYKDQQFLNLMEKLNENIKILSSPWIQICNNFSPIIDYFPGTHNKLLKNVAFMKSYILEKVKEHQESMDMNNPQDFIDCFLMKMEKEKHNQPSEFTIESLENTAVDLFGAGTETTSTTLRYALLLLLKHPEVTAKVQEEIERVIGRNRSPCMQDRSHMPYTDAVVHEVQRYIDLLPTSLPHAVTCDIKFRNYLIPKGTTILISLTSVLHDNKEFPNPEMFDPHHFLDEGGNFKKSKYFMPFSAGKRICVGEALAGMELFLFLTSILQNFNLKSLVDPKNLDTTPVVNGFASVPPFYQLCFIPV
Procedure: as §1, §2, §3

[1] = Metabolic stability in mouse liver microsomes; format: in vitro ADME; conditions: 2 μM, 40 minutes, mouse hepatic microsomes
Procedure: Metabolic stability was defined as the percentage of parent compound lost over time in the presence of a metabolically active test system, such as rodent liver microsomal fractions.
Mouse hepatic microsomes were isolated from pooled (50), perfused livers of BALB/c male mice according to the standard protocol (Hill, J. R. in Current Protocols in Pharmacology 7.8.1-7.8.11, Wiley Interscience, 2003). The batch of microsomes was tested for quality control using imipramine, propranolol and verapamil as reference compounds. Microsomal incubations were carried out in 96-well plates in 5 aliquots of 40 μL each (one for each time point). Liver microsomal incubation medium contained PBS (100 mM, pH 7.4), MgCl2 (3.3 mM), NADPH (3 mM), glucose-6-phosphate (5.3 mM), glucose-6-phosphate dehydrogenase (0.67 units/mL) with 0.42 mg of liver microsomal protein per mL. Control incubations were performed replacing the NADPH-cofactor system with PBS. Compounds 1-4 and 31 (2 μM, final solvent concentration 1.6%) were each incubated with microsomes at 37° C. while shaking at […]. Incubations were performed in duplicates. Five time points over 40 minutes were analyzed. The reactions were stopped by adding 12 volumes of 90% acetonitrile-water to incubation aliquots, followed by protein sedimentation by centrifuging at 5500 rpm for 3 minutes. Supernatants were analyzed using the HPLC system coupled with tandem mass spectrometer. The elimination constant (kel), half-life (t1/2) and intrinsic clearance (Clint) were determined in a plot of ln(AUC) versus time, using linear regression analysis:
[formula] [formula] In order to indicate the quality of the linear regression analysis, the R (correlation coefficient) values were provided. In some cases, the last time point was excluded from the calculations to ensure acceptable logarithmic linearity of decay. C. Results

Parkin = Parkin (Homo sapiens (Human), UniProt O60260); test: Primary HCI assay of EGFP-Parkin translocation to mitochondria; format: cell-based; conditions: for activity in EGFP-Parkin translocation to damaged mitochondria: 1 μM; for EC50: primary assay screen, Parkin translocation to mitochondria
Parkin, sequence (O60260 whole entry): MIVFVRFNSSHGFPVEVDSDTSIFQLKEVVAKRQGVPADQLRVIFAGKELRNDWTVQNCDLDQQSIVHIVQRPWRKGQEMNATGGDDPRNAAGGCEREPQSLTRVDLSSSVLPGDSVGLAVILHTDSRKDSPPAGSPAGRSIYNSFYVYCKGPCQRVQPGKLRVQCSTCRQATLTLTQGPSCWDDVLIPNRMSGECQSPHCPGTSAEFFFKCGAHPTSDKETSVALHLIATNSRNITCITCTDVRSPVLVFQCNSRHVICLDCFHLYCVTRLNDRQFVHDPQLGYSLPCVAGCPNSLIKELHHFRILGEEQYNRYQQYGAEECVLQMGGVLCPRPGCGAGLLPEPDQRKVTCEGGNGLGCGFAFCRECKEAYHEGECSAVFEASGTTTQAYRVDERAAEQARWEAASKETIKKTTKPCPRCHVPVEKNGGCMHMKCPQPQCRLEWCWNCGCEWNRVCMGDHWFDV
Procedure: GFP-Parkin is localized throughout the cell in unstressed cells but translocates to mitochondria when the mitochondrial membrane potential is compromised and Parkin is activated. After automated image acquisition of fixed cells, regions of interest of each cell were defined with the analysis software. […] To quantify the relocalization of GFP-Parkin to mitochondria, the ratio of the GFP intensity in the cytoplasm and the nucleus was calculated. Under non-stressed condition, this ratio is about 1. FIG. 1B is a bar graph showing the results of the assay with a Z factor (Z′) of 0.5-0.8, which indicates its robustness and usefulness as a screening assay. Validation of the assay has been performed by using PINK1 siRNA.
FIGS. 2A-2C show a primary HCI assay with CCCP titration. FIG. 2A is a graphic description of the primary HCI assay of EGFP-Parkin translocation. HeLa cells stably expressing GFP-Parkin were seeded with 1350 cells per well in 384-well plates (25 μL per well). Cells were allowed to attach overnight before drug was added 2× concentrated in a volume of 25 μL in triplicates. After 2 h, 50 μL of a 2× low-dose CCCP (yielding a final concentration of 3.5 μM CCCP) was added to all wells that contained test compounds and for the negative control. For positive control wells, CCCP was added in a final concentration of 10 μM. After 2 h incubation with CCCP, cells were fixed and labeled with Hoechst for at least 1 h before cells were imaged. […] Values were being normalized to negative and positive control values and plotted as % activity. Z′ was calculated for quality control. Positive controls were indicated in green, negative control wells in red. Drugs that lead to more than 50% activity are considered positive (blue).
Functional testing of compounds was performed using an established primary HCI assay for Parkin translocation, which correlates well with enzymatic activation (Fiesel et al., J. Cell Science (2014) 127:3488-3504; Fiesel et al., Human Mutation (2015) 36:774-786). In brief, 1400 HeLa cells stably expressing EGFP-Parkin were seeded into optical 384-well plates (Greiner BioOne) in 25 μL media and allowed to adhere for 40 h. Compounds 1, 2, 3, 4, and 31 were added to the plate as 2× concentrated stocks. Control wells were treated with equal volume of DMSO in media. After 2 h, unless otherwise stated, CCCP was added as 2× concentrated stock with a final assay concentration of 10 μM for PC wells and 3.5 μM for test and NC wells. This low dose of CCCP was experimentally determined by a dose response curve of CCCP to result in no Parkin translocation (FIG. 13). After another 2 h, cells were fixed in 4% paraformaldehyde for 10 min and stained with Hoechst 33342 (1:5000, Invitrogen) before plates were imaged and analyzed.
Image acquisition was performed on a BD Pathway 855 with the Attovision V1.6 software (BD Biosciences). Wells were imaged with a 20× objective using a 2×2 montage with laser autofocus. EGFP exposure time was 0.0175 sec, Hoechst 0.0015 sec. Raw images were not processed and directly analyzed using a build-in ‘RING—2 output’ algorithm. Values were exported and normalized using JMP 11 software and transferred to GraphPad Prism 7 for quality control, graphing and curve fitting for DRCs with a variable slope using four parameters. […] Values were normalized to both PC and NC values from 24 wells each per plate and the Z′ score was calculated. Plates with Z′<0.5 were repeated.

CYP 3A4 = CYP 3A4 (Homo sapiens (Human), UniProt P08684); test: in vitro; conditions: % Mean
CYP 3A4, sequence (P08684 whole entry): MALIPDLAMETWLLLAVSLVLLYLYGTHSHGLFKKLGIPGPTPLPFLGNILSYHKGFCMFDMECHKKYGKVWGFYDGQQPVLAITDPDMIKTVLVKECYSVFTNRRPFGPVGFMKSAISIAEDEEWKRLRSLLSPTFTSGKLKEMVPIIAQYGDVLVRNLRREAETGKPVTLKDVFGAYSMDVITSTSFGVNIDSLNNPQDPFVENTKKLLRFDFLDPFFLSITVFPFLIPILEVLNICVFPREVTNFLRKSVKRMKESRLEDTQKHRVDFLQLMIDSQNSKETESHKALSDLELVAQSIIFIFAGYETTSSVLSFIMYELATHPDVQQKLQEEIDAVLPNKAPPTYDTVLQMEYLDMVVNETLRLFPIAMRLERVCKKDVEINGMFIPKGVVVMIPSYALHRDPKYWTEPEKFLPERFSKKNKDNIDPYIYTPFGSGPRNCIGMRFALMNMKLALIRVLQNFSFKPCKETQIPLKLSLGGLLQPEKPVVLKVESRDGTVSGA
Procedure: as §1, §2, §3

CYP 2C19 = CYP 2C19 (Homo sapiens (Human), UniProt P33261); test: in vitro
CYP 2C19, sequence (P33261 whole entry): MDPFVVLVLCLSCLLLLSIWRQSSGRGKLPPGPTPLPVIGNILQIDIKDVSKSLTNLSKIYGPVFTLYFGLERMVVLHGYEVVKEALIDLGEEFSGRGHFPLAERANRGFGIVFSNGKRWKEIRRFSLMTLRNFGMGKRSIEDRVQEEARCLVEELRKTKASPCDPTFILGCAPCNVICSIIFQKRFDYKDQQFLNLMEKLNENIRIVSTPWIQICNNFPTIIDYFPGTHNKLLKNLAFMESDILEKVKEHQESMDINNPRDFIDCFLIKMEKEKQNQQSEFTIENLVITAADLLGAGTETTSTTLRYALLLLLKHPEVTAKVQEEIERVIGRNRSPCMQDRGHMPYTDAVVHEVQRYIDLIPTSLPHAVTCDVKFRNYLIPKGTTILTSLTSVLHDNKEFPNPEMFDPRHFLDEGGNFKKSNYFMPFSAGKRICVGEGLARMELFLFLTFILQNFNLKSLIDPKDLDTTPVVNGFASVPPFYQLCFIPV
Procedure: as §1, §2, §3

CYP 1A2 = CYP 1A2 (Homo sapiens (Human), UniProt P05177); test: in vitro
CYP 1A2, sequence (P05177 whole entry): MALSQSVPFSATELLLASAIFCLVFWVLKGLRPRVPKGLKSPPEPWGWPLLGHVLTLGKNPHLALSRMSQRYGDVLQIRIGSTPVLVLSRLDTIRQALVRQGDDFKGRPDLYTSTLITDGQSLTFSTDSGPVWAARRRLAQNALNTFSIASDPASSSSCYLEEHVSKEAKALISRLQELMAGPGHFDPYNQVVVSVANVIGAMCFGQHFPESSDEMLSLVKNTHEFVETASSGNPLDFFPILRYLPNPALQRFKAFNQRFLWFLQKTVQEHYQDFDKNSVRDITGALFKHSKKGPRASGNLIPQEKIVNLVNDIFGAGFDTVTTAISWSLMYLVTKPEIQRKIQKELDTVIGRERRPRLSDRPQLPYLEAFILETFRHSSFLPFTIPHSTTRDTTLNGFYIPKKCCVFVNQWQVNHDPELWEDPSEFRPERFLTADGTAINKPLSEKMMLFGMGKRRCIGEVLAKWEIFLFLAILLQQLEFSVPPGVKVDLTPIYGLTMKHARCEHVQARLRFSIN
Procedure: as §1, §2, §3

[2] = read-out: Inhibition, % (individual replicates)

Row | SMILES | inhibition at 10 µM (CYP 2D6; % Mean) | Inhibition, % (individual replicates) (CYP 2C9) | inhibition at 10 µM (CYP 2C9; read-out: Inhibition, % Mean) | metabolic stability [1] | activity in EGFP-Parkin translocation to damaged mitochondria (Parkin) | EC50 (Parkin) | inhibition at 10 µM (CYP 3A4) | inhibition at 10 µM (CYP 2C19; % (individual replicates)) | inhibition at 10 µM (CYP 2C19; % Mean) | inhibition at 10 µM (CYP 1A2; % Mean) | inhibition at 10 µM (CYP 2D6; % (individual replicates)) | inhibition at 10 µM (CYP 2C9; [2]) | inhibition at 10 µM (CYP 1A2; % (individual replicates))
1 | Cc1nc2c(c(N3CCCN(Cc4ccccc4)CC3)n1)CCCC2 [Compound 31] | 60.6% | 50.4% and −18.3% and 11.9% and 13.7% | 14.5% | low stability | showed activity | 990 nM | -16.1% | 14% | 16.2% | -0.7% | – | – | –
2 | CC(C)(C)Sc1ccc(NC(=O)Cn2ccnc2)cc1 [Compound 3] | 99.7% | 98.8% and 98.0% and 97.4% | 97.6% | high metabolic stability | showed activity | 405 nM | 88.3% | 97.4% | 92.5% | 97.6% | 98.9% | 96.2% | 98.6%
3 | O=C(Cn1cnc2c1CCCC2)Nc1ccc(-c2ccccc2)cc1 [Compound 1] | 17% | 40.6% and 11.1% and 15.7% and 28.5% | 24% | moderate stability | showed activity | 371 nM | -24.4% | – | 9.4% | 69% | 18.5% | – | 73.2%
4 | O=C(Cn1ccnc1-c1ccccn1)Nc1ccc(-c2ccccc2)cc1 [Compound 4] | 18.4% | 27.3% and 11.9% and 4.6% and −11.1% | 8.2% | low stability | showed activity | 164 nM | 1.4% | – | -10.3% | 5.6% | – | – | –
5 | CC(C)c1nccn1CC(=O)Nc1ccc(-c2ccccc2)cc1 [Compound 2] | 17.3% | 30.3% and 25.4% and 21.4% | 28.4% | moderate stability | showed activity | 549 nM | -14.3% | – | -9.5% | 40.4% | – | 36.6% | 49.3%
